The assay addresses T1, mouse TRPM3α2 (mTRPM3) ion channel (Mus musculus, UniProt J9SQF3).
T1 construct: expressed in transfected cells; host or cells: flip-in HEK293
Put plainly: TRPM3 ion channel driven Ca2+ uptake, Fluo-4 AM assay, PS-stimulated (mTRPM3). The note with it: TRPM3 overexpressing flip-in HEK293 cells stimulated with Pregnenolone sulfate (PS) 50 μM, activity ranges A, B, C. The format is cell-based. The gist of the method: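 Flp-In HEK293 cells overexpressing mTRPM3α2 were added, in Ca²⁺-free Krebs, to wells already holding compound and 50 μM pregnenolone sulfate in Ca²⁺-containing Krebs. Fluo-4 AM fluorescence (ex 485/em 535 nm) was read immediately. Percent inhibition was computed from RFU relative to PS/vehicle wells and a positive-control inhibitor.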

The values below come from patent US20230391739A1, “ARYL DERIVATIVES FOR TREATING TRPM3 MEDIATED DISORDERS” (Katholieke Universiteit Leuven, priority 2020, published 2023).

The term IC50 denotes the concentration at which inhibition is half-maximal. Read a high IC50 as a need for much substance.

T1 sequence (J9SQF3 1-1709 isoform J9SQF3-12): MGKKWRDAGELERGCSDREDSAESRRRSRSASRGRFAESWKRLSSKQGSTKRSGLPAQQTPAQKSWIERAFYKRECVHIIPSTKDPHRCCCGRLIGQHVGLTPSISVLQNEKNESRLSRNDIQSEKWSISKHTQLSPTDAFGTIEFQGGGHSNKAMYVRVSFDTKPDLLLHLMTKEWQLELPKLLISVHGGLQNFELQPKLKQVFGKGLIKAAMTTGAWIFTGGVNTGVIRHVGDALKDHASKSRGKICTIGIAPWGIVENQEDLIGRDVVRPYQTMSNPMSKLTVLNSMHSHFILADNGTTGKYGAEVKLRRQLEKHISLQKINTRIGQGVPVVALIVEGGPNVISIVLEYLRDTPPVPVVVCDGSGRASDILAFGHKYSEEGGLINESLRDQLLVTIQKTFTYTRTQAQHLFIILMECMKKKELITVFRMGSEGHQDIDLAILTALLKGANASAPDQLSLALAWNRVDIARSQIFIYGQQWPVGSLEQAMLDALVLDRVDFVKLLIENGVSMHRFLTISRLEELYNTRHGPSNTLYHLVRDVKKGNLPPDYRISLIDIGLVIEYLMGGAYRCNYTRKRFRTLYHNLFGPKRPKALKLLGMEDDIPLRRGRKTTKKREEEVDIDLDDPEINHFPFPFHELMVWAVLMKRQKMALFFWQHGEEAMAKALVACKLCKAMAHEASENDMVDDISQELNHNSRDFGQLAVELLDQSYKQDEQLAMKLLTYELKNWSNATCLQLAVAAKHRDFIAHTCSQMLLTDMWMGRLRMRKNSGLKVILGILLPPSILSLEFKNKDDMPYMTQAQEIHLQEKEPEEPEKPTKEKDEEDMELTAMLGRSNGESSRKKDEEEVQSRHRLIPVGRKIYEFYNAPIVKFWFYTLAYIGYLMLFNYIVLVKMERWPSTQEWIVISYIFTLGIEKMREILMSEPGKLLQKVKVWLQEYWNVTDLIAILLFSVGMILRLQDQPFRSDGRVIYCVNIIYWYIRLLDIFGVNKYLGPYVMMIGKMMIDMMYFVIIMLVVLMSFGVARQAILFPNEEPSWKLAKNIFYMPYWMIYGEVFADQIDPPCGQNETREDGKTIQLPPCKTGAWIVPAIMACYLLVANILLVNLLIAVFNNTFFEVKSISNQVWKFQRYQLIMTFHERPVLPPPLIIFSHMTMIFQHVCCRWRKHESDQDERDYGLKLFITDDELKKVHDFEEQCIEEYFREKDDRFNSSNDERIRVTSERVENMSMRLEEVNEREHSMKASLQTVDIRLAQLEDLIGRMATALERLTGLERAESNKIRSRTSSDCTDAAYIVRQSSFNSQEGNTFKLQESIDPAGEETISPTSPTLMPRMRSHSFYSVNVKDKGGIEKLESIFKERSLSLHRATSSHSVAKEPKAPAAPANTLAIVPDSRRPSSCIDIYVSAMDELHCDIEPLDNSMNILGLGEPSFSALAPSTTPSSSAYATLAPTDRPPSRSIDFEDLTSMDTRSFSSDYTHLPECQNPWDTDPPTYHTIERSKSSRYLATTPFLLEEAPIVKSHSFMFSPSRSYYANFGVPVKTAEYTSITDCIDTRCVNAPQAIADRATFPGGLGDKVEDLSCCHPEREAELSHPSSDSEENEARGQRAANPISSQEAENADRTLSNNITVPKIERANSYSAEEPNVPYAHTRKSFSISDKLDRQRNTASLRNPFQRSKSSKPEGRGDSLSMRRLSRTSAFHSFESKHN

`Cc1oc2ccc(OCc3ccccc3)cc2c1C(=O)NC1CCCNC1` (stereo not shown) [Cpd 075, 5-(benzyloxy)-2-methyl-N-(piperidin-3-yl)benzofuran-3-carboxamide]: the IC50 was below 1 µM.

Compound `Cc1oc2ccc(OCc3ccccc3)cc2c1C(=O)NC1CCN(C)C1` (stereo not shown) [Cpd 076, 5-(benzyloxy)-2-methyl-N-(1-methylpyrrolidin-3-yl)benzofuran-3-carboxamide] displayed an IC50 below 1 µM.

Consider `Cc1oc2ccc(OCc3ccccc3)cc2c1C(=O)NCC1CCNC1` (stereo not shown) [Cpd 077, 5-(benzyloxy)-2-methyl-N-(pyrrolidin-3-ylmethyl)benzofuran-3-carboxamide], for which the IC50 was in the range of 1 to 20 µM.

The compound `Cc1oc2ccc(OCc3ccccc3)cc2c1C(=O)NCC1CCCN1` (stereo not shown) [Cpd 078, 5-(benzyloxy)-2-methyl-N-(pyrrolidin-2-ylmethyl)benzofuran-3-carboxamide] came in with an IC50 below 1 µM.

As to `Cc1oc2ccc(OCc3ccccc3)cc2c1C(=O)N[C@H]1CCN(C)C1` [Cpd 079, (S)-5-(benzyloxy)-2-methyl-N-(1-methylpyrrolidin-3-yl)benzofuran-3-carboxamide], the IC50 was below 1 µM.

On to `Cc1oc2ccc(OCc3ccccc3)cc2c1C(=O)N[C@@H]1CCN(C)C1` [Cpd 080, (R)-5-(benzyloxy)-2-methyl-N-(1-methylpyrrolidin-3-yl)benzofuran-3-carboxamide], for which the half-maximal inhibitory concentration (IC50) was below 1 µM.

As to `CN1CCC(NC(=O)c2coc3ccc(OCc4ccccc4)cc23)CC1` [Cpd 081, 5-(benzyloxy)-N-(1-methylpiperidin-4-yl)benzofuran-3-carboxamide], the IC50 fell in the range of 1 to 20 µM.

`Cc1oc2ccc(OCc3ccccc3)cc2c1C(=O)NC1(CN)CCC1` [Cpd 082, N-(1-(aminomethyl)cyclobutyl)-5-(benzyloxy)-2-methylbenzofuran-3-carboxamide] registered an IC50 below 1 µM.

On to `Cc1ccccc1COc1ccc2oc(C)c(C(=O)N[C@H]3CCNC3)c2c1` [Cpd 083, (S)-2-methyl-5-((2-methylbenzyl)oxy)-N-(pyrrolidin-3-yl)benzofuran-3-carboxamide], for which the IC50 is below 1 µM.

For the compound `Cc1cccc(COc2ccc3oc(C)c(C(=O)N[C@H]4CCNC4)c3c2)c1` [Cpd 084, (S)-2-methyl-5-((3-methylbenzyl)oxy)-N-(pyrrolidin-3-yl)benzofuran-3-carboxamide], the 50% inhibitory concentration (IC50) is below 1 µM.

Take `Cc1ccc(COc2ccc3oc(C)c(C(=O)N[C@H]4CCNC4)c3c2)cc1` [Cpd 085, (S)-2-methyl-5-((4-methylbenzyl)oxy)-N-(pyrrolidin-3-yl)benzofuran-3-carboxamide]: the IC50 is below 1 µM.

For `Cc1oc2ccc(OCc3ccccc3)cc2c1C(=O)NC1CCC(O)C1` (stereo not shown) [Cpd 086, 5-(benzyloxy)-N-(3-hydroxycyclopentyl)-2-methylbenzofuran-3-carboxamide], the IC50 was below 1 µM.

`Cc1oc2ccc(OCc3ccccc3)cc2c1C(=O)NCC1CCCO1` (stereo not shown) [Cpd 087, 5-(benzyloxy)-2-methyl-N-((tetrahydrofuran-2-yl)methyl)benzofuran-3-carboxamide] showed a 50% inhibitory concentration (IC50) below 1 µM.

The compound `Cc1oc2ccc(OCc3ccccc3)cc2c1C(=O)NC1CCOCC1` [Cpd 088, 5-(benzyloxy)-2-methyl-N-(tetrahydro-2H-pyran-4-yl)benzofuran-3-carboxamide] came in with an IC50 below 1 µM.

`Cc1oc2ccc(OCc3ccccc3)cc2c1C(=O)NC[C@H]1CCCO1` [Cpd 089, (R)-5-(benzyloxy)-2-methyl-N-((tetrahydrofuran-2-yl)methyl)benzofuran-3-carboxamide] showed an IC50 of 1 to 20 µM.

With `Cc1oc2ccc(OCc3ccccc3)cc2c1C(=O)NC[C@@H]1CCCO1` [Cpd 090, (S)-5-(benzyloxy)-2-methyl-N-((tetrahydrofuran-2-yl)methyl)benzofuran-3-carboxamide], the IC50 is below 1 µM.

`Cc1oc2ccc(OCc3ccccc3)cc2c1C(=O)NCCCN(C)C` [Cpd 091, 5-(benzyloxy)-N-(3-(dimethylamino)propyl)-2-methylbenzofuran-3-carboxamide] had an IC50 of 1 to 20 µM.

`Cc1oc2ccc(OCc3ccccc3)cc2c1C(=O)NC1(CO)COC1` [Cpd 092, 5-(benzyloxy)-N-(3-(hydroxymethyl)oxetan-3-yl)-2-methylbenzofuran-3-carboxamide] returned an IC50 below 1 µM.

In turn, `Cc1oc2ccc(OCc3ccccc3F)cc2c1C(=O)N[C@H]1CCNC1` [Cpd 095, (S)-5-((2-fluorobenzyl)oxy)-2-methyl-N-(pyrrolidin-3-yl)benzofuran-3-carboxamide] came in with an IC50 below 1 µM.

As to `Cc1oc2ccc(OCc3cccc(F)c3)cc2c1C(=O)N[C@H]1CCNC1` [Cpd 096, (S)-5-((3-fluorobenzyl)oxy)-2-methyl-N-(pyrrolidin-3-yl)benzofuran-3-carboxamide], the IC50 is below 1 µM.

In turn, `Cc1oc2ccc(OCc3ccc(F)cc3)cc2c1C(=O)N[C@H]1CCNC1` [Cpd 097, (S)-5-((4-fluorobenzyl)oxy)-2-methyl-N-(pyrrolidin-3-yl)benzofuran-3-carboxamide] came in with an IC50 below 1 µM.

`Cc1oc2ccc(OCc3ccccc3)cc2c1C(=O)NCc1ccccc1` [Cpd 098, N-benzyl-5-(benzyloxy)-2-methylbenzofuran-3-carboxamide]: the concentration for half-maximal inhibition (IC50) was above 20 µM.

As for `Cc1oc2ccc(OCc3ccccc3)cc2c1C(=O)NCc1ccccn1` [Cpd 099, 5-(benzyloxy)-2-methyl-N-(pyridin-2-ylmethyl)benzofuran-3-carboxamide], the concentration for half-maximal inhibition (IC50) was in the range of 1 to 20 µM.

`Cc1oc2ccc(OCc3ccccc3)cc2c1C(=O)NCc1cccnc1` [Cpd 100, 5-(benzyloxy)-2-methyl-N-(pyridin-3-ylmethyl)benzofuran-3-carboxamide]: the IC50 lay within 1 to 20 µM.

The compound `Cc1oc2ccc(OCc3ccccc3)cc2c1C(=O)NCc1ccncc1` [Cpd 101, 5-(benzyloxy)-2-methyl-N-(pyridin-4-ylmethyl)benzofuran-3-carboxamide] showed an IC50 of 1 to 20 µM.

For the compound `Cc1oc2ccc(OCc3ccccc3)cc2c1C(=O)NCc1cnccn1` [Cpd 102, 5-(benzyloxy)-2-methyl-N-(pyrazin-2-ylmethyl)benzofuran-3-carboxamide], the 50% inhibitory concentration (IC50) was 1 to 20 µM.

In turn, `Cc1oc2ccc(OCc3ccc(C#N)cc3)cc2c1C(=O)N[C@H]1CCNC1` [Cpd 103, (S)-5-((4-cyanobenzyl)oxy)-2-methyl-N-(pyrrolidin-3-yl)benzofuran-3-carboxamide] registered an IC50 of 1 to 20 µM.

Turning to `Cc1oc2ccc(OCc3ccccc3)cc2c1C(=O)NCc1ccnn1C` [Cpd 104, 5-(benzyloxy)-2-methyl-N-((1-methyl-1H-pyrazol-5-yl)methyl)benzofuran-3-carboxamide], the IC50 was below 1 µM.

In turn, `Cc1cc(CNC(=O)c2c(C)oc3ccc(OCc4ccccc4)cc23)no1` [Cpd 105, 5-(benzyloxy)-2-methyl-N-((5-methylisoxazol-3-yl)methyl)benzofuran-3-carboxamide] showed an IC50 below 1 µM.

For `Cc1oc2ccc(OCc3ccccc3)cc2c1C(=O)NC1CCC(C)CC1` (stereo not shown) [Cpd 106, 5-(benzyloxy)-2-methyl-N-(4-methylcyclohexyl)benzofuran-3-carboxamide], the IC50 is above 20 µM.

`Cc1oc2ccc(OCc3ccccc3)cc2c1C(=O)N[C@@H]1CCCNC1=O` [Cpd 107, (R)-5-(benzyloxy)-2-methyl-N-(2-oxopiperidin-3-yl)benzofuran-3-carboxamide] registered an IC50 below 1 µM.
